# Laboratory results as given in patent publication US20110319790A1, “PHARMACEUTICAL COMPOSITION AND SYSTEM FOR PERMEABILIZING FETAL MEMBRANES” (B.G. NEGEV TECHNOLOGIES AND APPLICATIONS LTD., priority 2008, published 2011).
# Test system: postpartum human fetal membranes
# Test: Permeability of postpartum human fetal membranes to FITC-Dextran in a vertical glass diffusion cell after incubation with a substance
# Details: FIG. 8, 30 minutes incubation, FITC-Dextran 77 KDa, maternal side facing donor compartment
# Procedure: The permeability of postpartum human fetal membranes (obtained from Hillel Yaffe Medical Center, Israel) upon exposure to different substances was determined. The experimental set-up used is shown schematically in FIG. 7. […] The membrane 171 was first incubated with a substance 176 added to the donor compartment 173. After 30 minutes of incubation, the substance was removed from the donor compartment 173. The donor compartment was then washed with PBS, and the donor and receiver compartments were filled with 0.01M phosphate buffered Saline (PBS) 175. 5 mL of a 0.5 mg/mL Dextran solution in PBS (average molecular weight of the Dextran 77 KDa) conjugated to the fluorescent label FITC (fluorescein isothiocyanate-Dextran)) 179 was added to the donor compartment 173. The diffusion cell 172 was protected from light in order to prevent fluorescent bleaching of the FITC. 1 mL samples were withdrawn from the receiver compartment 174 at various times with constant stirring of the receiver compartment, and the concentration of the FITC in the samples was determined spectofluorimetrically.
# From the rate of increase in the concentration of the fluorescence in the receiver compartment 174, the extent of permeability enhancement of the membrane, in comparison to a control experiment was calculated.
smiles,measurement,setting,value
"CCCCCCCCCCCCCCCC[N+](C)(C)C.[Br-] [Cetyl trimethylammonium bromide (CTAB), Cetyl trimethylammonium bromide]",enhancement in permeability of the membrane compared to control,substance at 4%,Enhanced permeability
"CN1CCCC1=O [N-methy-2-pyrrolidone (NMP), N-methy-2-pyrrolidone]",enhancement in permeability of the membrane compared to control,concentration not given,Enhanced permeability
CCCCCCCC/C=C\CCCCCCCC(=O)O [Oleic acid],enhancement in permeability of the membrane compared to control,substance at 1.5%,Enhanced permeability
"CCCCCCCCCCCCOS(=O)(=O)[O-].[Na+] [SLS, sodium lauryl sulfate]",enhancement in permeability of the membrane compared to control,substance at 1%,Enhanced permeability
CCCCN1CCCCC1C(=O)Nc1c(C)cccc1C (stereo not shown) [bupivacaine],enhancement in permeability of the membrane compared to control,substance at 0.5%,Enhanced permeability
OCCO [ethylene glycol],enhancement in permeability of the membrane compared to control,substance at 10%,Enhanced permeability
CC(C)CCCCCCCCCCCCCCC(=O)O [iso-stearic acid],enhancement in permeability of the membrane compared to control,substance at 10%,Enhanced permeability
